For assay [1], the system named is guinea pig tracheal chain preparations. The experiment in a line: spontaneous tone of guinea pig tracheal chain (ring) preparation, relaxant effect. As to conditions: for absolute separation ratio: atrial ED25 versus tracheal ED50, guinea pig in vitro preparations. From the text: (§1) Two in vitro test systems used for determining selective β-stimulant activity are: (1) effect on spontaneous tone of guinea pig tracheal chain preparations as a measure of β-stimulant (direct relaxant) effect on airway smooth muscle, and (2) effect on rate of spontaneously beating right atria of the guinea pig as a measure of β-stimulant effect on cardiac muscle.

The test system of assay [2] is right atria of the guinea pig. Description: rate of spontaneously beating guinea pig right atria. As to conditions: Cavia porcellus; in vitro; β-stimulant effect on cardiac muscle; read-out: ED25, increasing the rate of contraction of guinea pig right atria.
Source text: as §1

≈ marks a conversion by molar mass, not a printed value.

As to `CC(C)NCC(O)c1ccc(O)c(O)c1` (racemic) [d,l isoproterenol, reference compound], the absolute separation ratio in assay [1] amounted to 0.5.
As to `Oc1ccc(OCC(O)CNCCCCCCNCC(O)COc2ccc(O)c(O)c2)cc1O` (centres unmarked) [N,N'-bis[3,4-dihydroxyphenoxy)-2-hydroxypropyl]-1,6-diaminohexane], the EC25 in assay [2] was found to be 0.029 µg/mL (≈ 0.0603 µM). In addition, the EC50 in assay [1] (Cavia porcellus, in vitro, β-stimulant (direct relaxant) effect on airway smooth muscle, read-out: ED50, relaxes the spontaneous tone of guinea pig tracheal ring preparation) was determined as 0.00414 µg/mL (≈ 0.00861 µM). In assay [1], the absolute separation ratio is listed as 7. Besides, the “improvement of absolute separation ratio compared to d,l isoproterenol” value in assay [1] (versus d,l isoproterenol in similar in vitro preparations) was 14 fold.

Source of the values: US4013777A, “Bis-phenoxypropanolamines” (SmithKline Corporation, priority 1975, dated 1977).
